From patent US9732065B2, “Cyclic aminomethyl pyrimidine derivative” (Sumitomo Dainippon Pharma Co., Ltd., priority 2013, dated 2017)

Legend:
[1] = PK study in rat (bioavailability); format: in vivo; conditions: plasma, oral vs intravenous administration
Procedure: In this study, the pharmacokinetics of the present compound can be evaluated. Specifically, a 7-week-old SD-type or WKY-type rat received the intravenous administration of a solution of the present compound in saline or the oral administration of a suspension of the present compound in carboxymethylcellulose or methylcellulose. Blood was collected from the rat at each time below.
Intravenous administration: 5 minutes, 15 minutes, 30 minutes, 1 hour, 2 hours, 4 hours, 6 hours, and 24 hours after administration
Oral administration: 15 minutes, 30 minutes, 1 hour, 2 hours, 4 hours, 6 hours, and 24 hours after administration
Plasma was collected from the blood, the levels of the present compound in the plasma were measured by a LC-MS method, and then the pharmacokinetic parameters were calculated on the basis of the level changes.

[2] = Brain penetration study in rat; format: in vivo; conditions: brain and plasma, unbound brain-to-plasma drug concentration ratio
Procedure: In this study, the brain penetration of the present compound can be evaluated. Specifically, a 7-week-old SD-type or WKY-type rat received the subcutaneous administration of a solution of the present compound in saline or the oral administration of a suspension of the present compound in methylcellulose. Plasma and brain were collected from the treated rat 0.5 hour, 1 hour or 2 hours after the administration, and then the levels of the present compound in the plasma and the brain were measured by a LC-MS method.
The protein binding ratios of the present compound to the plasma and the brain were measured by an equilibrium dialysis method.
The levels of the present compound in the plasma and the brain as well as the plasma and brain protein binding ratios are applied to the following formula, and thus Kp,uu,brain (Unbound brain-to-plasma drug concentration ratio) can be calculated. Kp,uu,brain=(level of the present compound in the brain×(100−brain protein binding ratio (%))/100)/(level of the present compound in the plasma×(100−plasma protein binding ratio (%))/100)

[3] = molecular target: T1, Human dopamine D4 receptor (Homo sapiens, UniProt P21917); test: Agonistic/antagonistic activity in G protein dependent pathway (aequorin intracellular calcium luminescence), D4; format: cell-based; design: expressed in transfected cells; host or cells: CHO-K1 or HEK293 cells; conditions: for Emax at 1 µM / Emax at 0.1 µM: read-out: Maximal activity on each receptor (%): D4; for inhibition at 0.1 µM / inhibition at 1 µM: against 10 μM endogenous ligand, read-out: Inhibitory activity on each receptor (%): D4
T1 sequence (P21917 1-419): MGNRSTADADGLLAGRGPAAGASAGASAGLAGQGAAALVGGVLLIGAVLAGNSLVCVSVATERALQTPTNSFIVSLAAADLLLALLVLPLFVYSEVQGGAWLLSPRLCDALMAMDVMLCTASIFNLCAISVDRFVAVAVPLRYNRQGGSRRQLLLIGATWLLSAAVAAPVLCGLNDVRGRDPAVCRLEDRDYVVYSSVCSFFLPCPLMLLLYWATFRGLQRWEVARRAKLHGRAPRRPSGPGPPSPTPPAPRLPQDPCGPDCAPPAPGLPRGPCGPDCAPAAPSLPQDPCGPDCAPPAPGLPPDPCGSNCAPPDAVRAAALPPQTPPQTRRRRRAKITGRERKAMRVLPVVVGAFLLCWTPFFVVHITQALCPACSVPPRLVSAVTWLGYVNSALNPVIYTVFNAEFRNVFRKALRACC
Procedure: (§1) Plasmids encoding each receptor, aequorin and Gα16 were prepared, and the plasmids were transfected into CHO cells (Chinese Hamster Ovary cells) or HEK293 cells (Human Embryonic Kidney 293 cells) to prepare expressing cell lines.
(§2) The agonistic or antagonistic activity of the present compound in the G protein dependent pathway was evaluated on the basis of intracellular calcium levels as follows. CHO-K1 or HEK293 cell lines transfected with D2, D4, α1A, or α2A receptor genes were seeded in a 384-well plate, and incubated in a CO2 incubator at 37° C. for 24 hours, and then a solution of the present compound in DMSO was added into cells preloaded with coelenterazine to measure the change in luminescent signals with a FDSS (Hamamatsu Photonics K.K.). […] The agonistic activity of the present compound was calculated according to the measured luminescent signals, as the maximal activity (Emax) of the present compound. On the other hand, the antagonistic activity of the present compound was calculated according to the luminescent signals in wells with 10 μM of an endogenous ligand alone defined as 100%, as the inhibitory activity of the present compound to an endogenous ligand. EC50 value was calculated as the concentration of the present compound required to achieve a 50% response, and IC50 was calculated as the concentration of the present compound required to achieve a 50% inhibition of the Emax of an endogenous ligand.

[4] = molecular target: T2, human adrenergic α1A receptor (Homo sapiens, UniProt P35348); test: Agonistic/antagonistic activity in G protein dependent pathway (aequorin intracellular calcium luminescence), α1A; format: cell-based; conditions: for Maximal activity on each receptor (%): α1A: 10 μM adrenaline = 100%; for inhibition at 0.1 µM / inhibition at 1 µM: against 10 μM endogenous ligand, read-out: Inhibitory activity on each receptor (%): α1A
T2 construct: expressed in transfected cells; host or cells: CHO-K1 or HEK293 cells
T2 sequence (P35348 1-466): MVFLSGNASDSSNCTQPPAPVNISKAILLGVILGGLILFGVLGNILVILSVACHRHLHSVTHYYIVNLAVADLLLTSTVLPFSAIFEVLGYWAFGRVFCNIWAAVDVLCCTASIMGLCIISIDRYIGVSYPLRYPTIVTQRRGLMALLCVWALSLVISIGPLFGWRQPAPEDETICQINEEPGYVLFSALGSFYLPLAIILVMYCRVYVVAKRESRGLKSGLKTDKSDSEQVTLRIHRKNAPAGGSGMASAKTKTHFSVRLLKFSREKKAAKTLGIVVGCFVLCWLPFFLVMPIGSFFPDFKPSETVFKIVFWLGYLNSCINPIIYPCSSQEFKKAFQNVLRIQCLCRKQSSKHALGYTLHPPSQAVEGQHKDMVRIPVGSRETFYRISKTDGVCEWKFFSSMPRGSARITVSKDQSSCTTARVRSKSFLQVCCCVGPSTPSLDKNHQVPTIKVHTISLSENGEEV
Procedure: as §1, §2

[5] = molecular target: T1, Human dopamine D4 receptor; test: G protein independent pathway: β-arrestin recruit ability (PathHunter β-galactosidase); format: cell-based; design: expressed in transfected cells; conditions: β-arrestin recruitment, 90 minutes; 10 μM dopamine = 100%
Procedure: The activation of the G protein independent pathway was evaluated on the basis of the recruit ability of β-arrestin as follows. Cell lines transfected with D4 receptor genes were seeded in a 384-well plate, and incubated in a CO2 incubator at 37° C. for 24 hours, a solution of the present compound in DMSO was added into the cells, and then the cells were left at 37° C. for 90 minutes. Buffer containing β-galactosidase reaction substance (PathHunter Cell Assay Buffer, DiscoverRx) was added thereto, and luminescent signals in the wells were measured with a FDSS (Hamamatsu Photonics K.K.). […] The maximal activity (Emax) of the present compound was calculated according to the measured luminescent signals. EC50 value was calculated as the concentration of the present compound required to achieve a 50 response.

| SMILES | bioavailability [1] | Kp uu [2] | Emax at 1 µM [3] | Maximal activity on each receptor (%): α1A ([4]; 0.1 μM) | inhibition at 0.1 µM ([4]; 0.1 μM) | Maximal activity on each receptor (%): α1A ([4]; 1 μM) | inhibition at 1 µM ([4]; 1 μM) | inhibition at 0.1 µM [3] | inhibition at 1 µM [3] | Emax at 0.1 µM [3] | Maximal activity on D4 receptor (%) [5] |
| --- | --- | --- | --- | --- | --- | --- | --- | --- | --- | --- | --- |
| Nc1ncc(CN2CCC(c3ccccn3)CC2)cn1 [Example 36] | 67.2% | 2.28 | 82% | – | – | – | – | – | – | – | – |
| Cc1ncc(CN2CCC(c3ccccn3)CC2)c(C)n1 [Example 44, 2,4-Dimethyl-5-[4-(pyridin-2-yl)piperidin-1-ylmethyl]pyrimidine] | 27.6% | 0.8 | 64% | 0.04% | 2.7% | 0.01% | 2.6% | 58% | 78% | 27% | 6% |
| Cc1ncc(CN2CCC(c3cccnc3)CC2)c(C)n1 [Example 45, 2,4-Dimethyl-5-[4-(pyridin-3-yl)piperidin-1-ylmethyl]pyrimidine] | 21.6% | 0.8 | 35% | 0.03% | -5.6% | 0.08% | -0.73% | 72% | 87% | 20% | 9% |
| Nc1ncc(CN2CCC(c3cncc(F)c3)CC2)cn1 [Example 46, 5-[4-(5-Fluoropyridin-3-yl)piperidin-1-ylmethyl]pyrimidin-2-amine] | 92.2% | 1.8 | 40% | 0.08% | -6.4% | 0.23% | -17% | 61% | 85% | 14% | 11% |
